Source: ChEMBL document CHEMBL4725218, “Deep Learning Enhancing Kinome-Wide Polypharmacology Profiling: Model Construction and Experiment Validation” (J Med Chem, 2020)

Columns and labels:
[1] = molecular target: Macrophage colony-stimulating factor 1 receptor (Homo sapiens) (UniProt P07333); assay: Inhibition of human FMS assessed as remaining enzyme activity at 1 uM
[2] = molecular target: Homeodomain-interacting protein kinase 3 (Homo sapiens) (UniProt Q9H422); assay: Inhibition of human HIPK3 assessed as remaining enzyme activity at 1 uM
[3] = molecular target: Homeodomain-interacting protein kinase 2 (Homo sapiens) (UniProt Q9H2X6); assay: Inhibition of human HIPK2 assessed as remaining enzyme activity at 1 uM
[4] = molecular target: Receptor-type tyrosine-protein kinase FLT3 (Homo sapiens) (UniProt P36888); assay: Inhibition of human FLT3 assessed as remaining enzyme activity at 1 uM
Homo sapiens = species on record: Homo sapiens; assay: Inhibition of human p70S6K assessed as remaining enzyme activity at 1 uM
[5] = molecular target: Serine/threonine-protein kinase TAO1 (Homo sapiens) (UniProt Q7L7X3); assay: Inhibition of human TAO1 assessed as remaining enzyme activity at 1 uM
[6] = molecular target: Vascular endothelial growth factor receptor 3 (Homo sapiens) (UniProt P35916); assay: Inhibition of human VEGFR3 assessed as remaining enzyme activity at 0.1 uM
[7] = molecular target: Mitogen-activated protein kinase 14 (Homo sapiens) (UniProt Q16539); assay: Inhibition of human p38alpha assessed as remaining enzyme activity at 0.1 uM
[8] = molecular target: T1, Homeodomain-interacting protein kinase 4 (Homo sapiens) (UniProt Q8NE63); assay: Inhibition of human HIPK4 assessed as remaining enzyme activity at 0.1 uM
T1 sequence (whole entry): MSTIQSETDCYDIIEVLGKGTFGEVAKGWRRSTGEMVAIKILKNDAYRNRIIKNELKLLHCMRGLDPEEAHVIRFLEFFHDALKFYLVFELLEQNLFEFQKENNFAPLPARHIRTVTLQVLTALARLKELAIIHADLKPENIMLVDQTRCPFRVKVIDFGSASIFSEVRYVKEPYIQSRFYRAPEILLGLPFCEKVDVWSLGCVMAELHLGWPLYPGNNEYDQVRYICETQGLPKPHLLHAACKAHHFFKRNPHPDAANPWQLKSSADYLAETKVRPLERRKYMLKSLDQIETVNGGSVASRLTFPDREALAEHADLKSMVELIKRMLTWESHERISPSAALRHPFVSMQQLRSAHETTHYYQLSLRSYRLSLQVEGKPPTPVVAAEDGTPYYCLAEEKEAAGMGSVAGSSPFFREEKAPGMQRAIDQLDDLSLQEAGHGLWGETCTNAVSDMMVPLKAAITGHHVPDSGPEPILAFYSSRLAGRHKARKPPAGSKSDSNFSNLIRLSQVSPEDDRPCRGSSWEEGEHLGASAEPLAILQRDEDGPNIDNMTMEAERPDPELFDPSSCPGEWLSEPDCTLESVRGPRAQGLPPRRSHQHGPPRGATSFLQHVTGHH

[9] = molecular target: Tyrosine-protein kinase Lyn (Homo sapiens) (UniProt P07948); assay: Inhibition of human LYN assessed as remaining enzyme activity at 0.1 uM
[10] = molecular target: Serine/threonine-protein kinase B-raf (Homo sapiens) (UniProt P15056); assay: Inhibition of human B-Raf assessed as remaining enzyme activity at 0.1 uM
[11] = molecular target: RAF proto-oncogene serine/threonine-protein kinase (Homo sapiens) (UniProt P04049); assay: Inhibition of human C-Raf assessed as remaining enzyme activity at 0.1 uM
[12] = molecular target: Tyrosine-protein kinase ABL1 (Mus musculus) (UniProt P00520); assay: Inhibition of mouse Abl assessed as remaining enzyme activity at 0.01 uM
[13] = molecular target: T1, Homeodomain-interacting protein kinase 4 (Homo sapiens); assay: Inhibition of human HIPK4 assessed as remaining enzyme activity at 0.01 uM
[14] = molecular target: Mitogen-activated protein kinase kinase kinase kinase 5 (Homo sapiens) (UniProt Q9Y4K4); assay: Inhibition of human MAP4K5 assessed as remaining enzyme activity at 0.01 uM
[15] = molecular target: Tyrosine-protein kinase Blk (Mus musculus) (UniProt P16277); assay: Inhibition of mouse BLK assessed as remaining enzyme activity at 0.01 uM
[16] = molecular target: T2, Ephrin type-A receptor 8 (Homo sapiens) (UniProt P29322); assay: Inhibition of human EphA8 assessed as remaining enzyme activity at 0.01 uM
T2 sequence (whole entry): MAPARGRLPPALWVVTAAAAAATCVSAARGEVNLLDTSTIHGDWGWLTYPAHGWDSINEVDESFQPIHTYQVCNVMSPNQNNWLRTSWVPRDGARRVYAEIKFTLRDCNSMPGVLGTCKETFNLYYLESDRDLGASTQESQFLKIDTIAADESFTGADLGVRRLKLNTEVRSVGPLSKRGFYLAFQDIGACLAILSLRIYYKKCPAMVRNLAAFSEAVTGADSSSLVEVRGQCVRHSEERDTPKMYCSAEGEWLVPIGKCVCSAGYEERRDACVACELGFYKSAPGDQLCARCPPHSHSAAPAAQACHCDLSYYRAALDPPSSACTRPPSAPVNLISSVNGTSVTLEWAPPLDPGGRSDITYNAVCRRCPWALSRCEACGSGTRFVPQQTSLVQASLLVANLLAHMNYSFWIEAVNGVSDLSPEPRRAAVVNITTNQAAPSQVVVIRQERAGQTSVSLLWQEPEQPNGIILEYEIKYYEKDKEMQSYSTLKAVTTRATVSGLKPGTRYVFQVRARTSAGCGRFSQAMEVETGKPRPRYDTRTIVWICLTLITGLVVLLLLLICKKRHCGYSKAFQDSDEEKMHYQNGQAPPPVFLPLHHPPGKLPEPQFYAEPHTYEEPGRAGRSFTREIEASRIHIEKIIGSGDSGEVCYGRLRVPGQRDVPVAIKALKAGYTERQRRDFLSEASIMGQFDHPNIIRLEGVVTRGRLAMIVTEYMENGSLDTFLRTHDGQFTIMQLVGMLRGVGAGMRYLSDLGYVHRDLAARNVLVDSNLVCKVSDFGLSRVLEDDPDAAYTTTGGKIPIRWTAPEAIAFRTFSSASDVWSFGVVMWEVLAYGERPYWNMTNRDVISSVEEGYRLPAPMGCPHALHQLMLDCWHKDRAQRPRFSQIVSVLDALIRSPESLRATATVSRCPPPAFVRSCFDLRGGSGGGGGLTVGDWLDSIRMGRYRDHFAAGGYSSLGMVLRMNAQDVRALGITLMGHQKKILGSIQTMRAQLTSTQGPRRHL

[17] = molecular target: Tyrosine-protein kinase ABL1 (Homo sapiens) (UniProt P00519); assay: Inhibition of human ABL assessed as remaining enzyme activity at 0.01 uM

Chain of Vascular endothelial growth factor receptor 3 (Homo sapiens) (P35916 whole entry): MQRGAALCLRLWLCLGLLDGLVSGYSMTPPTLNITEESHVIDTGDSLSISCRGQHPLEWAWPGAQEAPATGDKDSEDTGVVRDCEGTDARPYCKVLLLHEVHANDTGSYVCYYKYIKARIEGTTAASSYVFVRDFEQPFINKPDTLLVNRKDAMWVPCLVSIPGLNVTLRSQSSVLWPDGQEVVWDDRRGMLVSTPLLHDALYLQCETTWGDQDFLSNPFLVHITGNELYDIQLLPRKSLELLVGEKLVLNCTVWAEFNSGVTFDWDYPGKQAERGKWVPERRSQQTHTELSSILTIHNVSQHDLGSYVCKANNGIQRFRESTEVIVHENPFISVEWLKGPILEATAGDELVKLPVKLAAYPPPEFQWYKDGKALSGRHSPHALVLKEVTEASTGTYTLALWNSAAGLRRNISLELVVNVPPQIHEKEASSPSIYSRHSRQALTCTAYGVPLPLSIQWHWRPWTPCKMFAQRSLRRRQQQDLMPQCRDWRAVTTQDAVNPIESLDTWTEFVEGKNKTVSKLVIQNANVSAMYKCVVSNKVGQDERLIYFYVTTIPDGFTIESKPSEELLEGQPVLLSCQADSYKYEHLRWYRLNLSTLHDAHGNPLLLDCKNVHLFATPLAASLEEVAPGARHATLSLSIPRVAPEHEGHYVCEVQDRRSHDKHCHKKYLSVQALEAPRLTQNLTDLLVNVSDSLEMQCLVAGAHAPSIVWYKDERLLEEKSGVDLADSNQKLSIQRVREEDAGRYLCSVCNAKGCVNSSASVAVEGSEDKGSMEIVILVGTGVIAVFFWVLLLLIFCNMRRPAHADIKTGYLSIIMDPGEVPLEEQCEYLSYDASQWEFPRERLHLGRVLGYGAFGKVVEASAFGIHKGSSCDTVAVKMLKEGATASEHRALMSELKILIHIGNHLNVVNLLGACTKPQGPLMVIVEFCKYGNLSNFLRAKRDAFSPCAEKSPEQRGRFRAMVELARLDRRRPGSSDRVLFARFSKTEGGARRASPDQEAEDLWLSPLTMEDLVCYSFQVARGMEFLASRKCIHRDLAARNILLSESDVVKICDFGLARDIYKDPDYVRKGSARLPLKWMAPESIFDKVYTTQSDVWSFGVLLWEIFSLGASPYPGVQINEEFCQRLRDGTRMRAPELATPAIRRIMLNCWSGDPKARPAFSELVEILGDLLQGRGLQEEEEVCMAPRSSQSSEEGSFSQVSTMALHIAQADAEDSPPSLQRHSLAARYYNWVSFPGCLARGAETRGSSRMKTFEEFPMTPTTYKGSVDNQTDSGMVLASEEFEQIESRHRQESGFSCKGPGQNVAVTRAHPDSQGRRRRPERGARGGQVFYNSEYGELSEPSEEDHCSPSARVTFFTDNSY
Chain of RAF proto-oncogene serine/threonine-protein kinase (Homo sapiens) (P04049 whole entry): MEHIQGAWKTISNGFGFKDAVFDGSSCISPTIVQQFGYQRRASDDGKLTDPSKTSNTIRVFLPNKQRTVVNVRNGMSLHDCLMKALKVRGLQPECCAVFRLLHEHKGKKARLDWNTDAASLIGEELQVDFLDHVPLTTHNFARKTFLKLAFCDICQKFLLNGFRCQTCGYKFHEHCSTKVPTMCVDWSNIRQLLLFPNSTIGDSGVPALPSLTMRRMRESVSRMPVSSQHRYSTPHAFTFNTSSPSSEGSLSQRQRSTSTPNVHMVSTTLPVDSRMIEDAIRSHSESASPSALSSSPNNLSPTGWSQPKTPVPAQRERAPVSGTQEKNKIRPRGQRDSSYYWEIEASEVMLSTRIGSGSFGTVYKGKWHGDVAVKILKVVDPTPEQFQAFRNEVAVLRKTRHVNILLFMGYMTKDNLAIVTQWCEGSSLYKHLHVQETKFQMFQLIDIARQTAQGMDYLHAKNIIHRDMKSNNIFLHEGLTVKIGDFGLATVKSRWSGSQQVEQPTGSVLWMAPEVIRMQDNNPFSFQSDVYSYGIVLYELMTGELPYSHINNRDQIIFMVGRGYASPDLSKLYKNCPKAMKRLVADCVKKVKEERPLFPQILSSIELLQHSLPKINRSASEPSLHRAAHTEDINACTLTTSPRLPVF
Chain of Serine/threonine-protein kinase TAO1 (Homo sapiens) (Q7L7X3 whole entry): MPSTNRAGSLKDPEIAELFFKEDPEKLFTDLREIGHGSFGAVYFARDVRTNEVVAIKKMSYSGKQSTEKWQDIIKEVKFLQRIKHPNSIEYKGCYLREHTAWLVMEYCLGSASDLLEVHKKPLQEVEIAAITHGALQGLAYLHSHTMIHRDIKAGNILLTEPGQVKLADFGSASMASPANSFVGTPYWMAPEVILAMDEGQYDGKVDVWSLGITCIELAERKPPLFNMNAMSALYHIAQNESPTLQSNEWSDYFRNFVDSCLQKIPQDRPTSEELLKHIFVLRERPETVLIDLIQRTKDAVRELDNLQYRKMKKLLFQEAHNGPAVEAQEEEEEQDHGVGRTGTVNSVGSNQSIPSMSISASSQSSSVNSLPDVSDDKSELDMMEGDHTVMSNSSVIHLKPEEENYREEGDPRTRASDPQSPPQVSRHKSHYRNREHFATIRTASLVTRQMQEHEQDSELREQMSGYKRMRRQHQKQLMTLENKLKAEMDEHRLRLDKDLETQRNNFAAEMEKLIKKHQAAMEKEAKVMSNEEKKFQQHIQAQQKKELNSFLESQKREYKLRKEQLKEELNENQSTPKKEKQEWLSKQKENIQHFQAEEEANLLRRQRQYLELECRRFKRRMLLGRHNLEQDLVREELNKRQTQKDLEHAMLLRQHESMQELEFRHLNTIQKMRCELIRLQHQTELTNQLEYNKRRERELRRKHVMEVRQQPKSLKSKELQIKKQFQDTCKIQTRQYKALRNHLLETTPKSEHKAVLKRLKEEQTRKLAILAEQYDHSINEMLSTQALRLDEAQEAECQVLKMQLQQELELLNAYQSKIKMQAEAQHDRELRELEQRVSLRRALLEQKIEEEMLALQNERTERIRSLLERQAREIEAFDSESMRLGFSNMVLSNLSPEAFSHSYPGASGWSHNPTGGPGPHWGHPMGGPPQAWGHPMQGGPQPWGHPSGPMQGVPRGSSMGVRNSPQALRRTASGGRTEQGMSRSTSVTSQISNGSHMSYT
Chain of Tyrosine-protein kinase Lyn (Homo sapiens) (P07948 2-512 limits assumed): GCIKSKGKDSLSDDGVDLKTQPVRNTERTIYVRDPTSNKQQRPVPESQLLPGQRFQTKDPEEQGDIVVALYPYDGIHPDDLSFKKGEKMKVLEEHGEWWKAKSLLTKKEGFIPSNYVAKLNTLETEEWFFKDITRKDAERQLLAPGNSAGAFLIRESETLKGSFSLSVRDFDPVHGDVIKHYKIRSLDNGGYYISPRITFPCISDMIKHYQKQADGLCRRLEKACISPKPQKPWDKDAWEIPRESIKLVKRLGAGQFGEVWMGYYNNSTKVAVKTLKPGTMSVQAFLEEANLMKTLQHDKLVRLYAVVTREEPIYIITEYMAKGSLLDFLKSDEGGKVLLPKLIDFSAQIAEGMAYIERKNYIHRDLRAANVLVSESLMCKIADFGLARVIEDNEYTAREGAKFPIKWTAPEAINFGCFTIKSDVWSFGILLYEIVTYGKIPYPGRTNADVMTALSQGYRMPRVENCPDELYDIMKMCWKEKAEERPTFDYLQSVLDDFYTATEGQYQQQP
Chain of Mitogen-activated protein kinase 14 (Homo sapiens) (Q16539 whole entry): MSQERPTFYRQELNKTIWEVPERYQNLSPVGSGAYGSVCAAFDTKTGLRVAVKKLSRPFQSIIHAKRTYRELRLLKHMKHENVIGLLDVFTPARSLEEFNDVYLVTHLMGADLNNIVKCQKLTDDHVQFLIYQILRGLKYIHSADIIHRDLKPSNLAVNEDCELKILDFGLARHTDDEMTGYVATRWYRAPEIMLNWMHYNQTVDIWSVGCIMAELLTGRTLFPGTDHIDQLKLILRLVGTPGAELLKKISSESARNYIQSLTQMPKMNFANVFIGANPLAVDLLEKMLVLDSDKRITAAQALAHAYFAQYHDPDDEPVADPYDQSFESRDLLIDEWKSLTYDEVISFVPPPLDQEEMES
Chain of Homeodomain-interacting protein kinase 2 (Homo sapiens) (Q9H2X6 whole entry, looked up): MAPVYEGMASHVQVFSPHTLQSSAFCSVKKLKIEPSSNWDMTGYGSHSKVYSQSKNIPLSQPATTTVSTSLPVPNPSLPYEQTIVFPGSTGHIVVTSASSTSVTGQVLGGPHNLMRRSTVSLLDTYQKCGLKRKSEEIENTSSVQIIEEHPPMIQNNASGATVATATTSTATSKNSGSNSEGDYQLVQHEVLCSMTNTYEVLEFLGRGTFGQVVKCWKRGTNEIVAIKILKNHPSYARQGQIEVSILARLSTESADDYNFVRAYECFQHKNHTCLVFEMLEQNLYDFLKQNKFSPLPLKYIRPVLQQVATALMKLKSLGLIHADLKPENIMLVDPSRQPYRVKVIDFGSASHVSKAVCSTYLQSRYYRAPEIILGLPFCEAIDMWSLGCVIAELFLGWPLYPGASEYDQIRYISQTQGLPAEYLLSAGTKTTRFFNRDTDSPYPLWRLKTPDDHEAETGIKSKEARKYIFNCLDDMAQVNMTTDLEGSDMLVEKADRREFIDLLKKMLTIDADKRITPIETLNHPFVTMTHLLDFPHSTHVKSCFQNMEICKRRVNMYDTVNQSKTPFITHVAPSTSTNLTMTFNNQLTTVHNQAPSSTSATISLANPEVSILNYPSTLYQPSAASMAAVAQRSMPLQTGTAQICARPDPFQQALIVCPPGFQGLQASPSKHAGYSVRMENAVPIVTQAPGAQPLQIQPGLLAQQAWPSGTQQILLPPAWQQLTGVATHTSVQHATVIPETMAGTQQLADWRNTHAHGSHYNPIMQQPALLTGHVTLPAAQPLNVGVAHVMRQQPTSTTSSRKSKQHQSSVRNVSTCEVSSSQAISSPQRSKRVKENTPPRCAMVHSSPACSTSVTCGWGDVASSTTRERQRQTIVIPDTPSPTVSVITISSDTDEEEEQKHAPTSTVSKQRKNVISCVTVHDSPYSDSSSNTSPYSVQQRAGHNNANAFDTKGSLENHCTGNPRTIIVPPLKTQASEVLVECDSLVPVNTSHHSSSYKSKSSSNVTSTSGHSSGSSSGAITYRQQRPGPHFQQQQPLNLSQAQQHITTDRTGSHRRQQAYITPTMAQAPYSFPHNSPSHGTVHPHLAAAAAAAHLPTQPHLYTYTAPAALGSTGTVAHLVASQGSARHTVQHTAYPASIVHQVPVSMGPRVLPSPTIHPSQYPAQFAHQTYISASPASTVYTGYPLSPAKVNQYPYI

Structure (SMILES): CNC(=O)c1cc(Oc2ccc(NC(=O)Nc3ccc(Cl)c(C(F)(F)F)c3)c(F)c2)ccn1
- Activity [1]: 10%
- Activity [2]: 12%
- Activity [3]: 13%
- Activity [4]: 31%
- Activity (Homo sapiens): 36%
- Activity [5]: 42%
- Activity [6]: 1%
- Activity [7]: 52%
- Activity [8]: 3%
- Activity [9]: 21%
- Activity [10]: 66%
- Activity [11]: 57%
- Activity [12]: 22%
- Activity [13]: 31%
- Activity [14]: 104%
- Activity [15]: 52%
- Activity [16]: 85%
- Activity [17]: 79%
